Measured values published in US20110117200A1 (ACTAVIS GROUP PTC EHF, priority 2008, published 2011).
Counter-ions that a name gives are not always drawn.

Experiments:
[1] = sunflower oil dispersant; for Particle size (D50): size below which 50% of the particles by volume are found; for Particle size (D90): size below which 90% of the particles by volume are found
Method: Particle Size Distribution (PSD)” is determined by laser diffraction in a Malvern Master Sizer 2000 equipment or its equivalent: Measurement conditions:
As used herein, “Particle Size Distribution (P.S.D)” means the cumulative volume size distribution of equivalent spherical diameters as determined by laser diffraction in Malvern Master Sizer 2000 equipment or its equivalent.
As used herein, Dx means that X percent of the particles have a diameter less than a specified diameter D. Thus, a D90 or d(0.9) of less than 300 microns means that 90 volume-percent of the particles in a composition have a diameter less than 300 microns.
The important characteristics of the PSD were the (D90), which is the size, in microns, below which 90% of the particles by volume are found, and the (D50), which is the size, in microns, below which 50% of the particles by volume are found.

[2] = cited from earlier work
[3] = target: B-form of the enzyme monoamine oxidase (MAO-B) (Homo sapiens, UniProt P27338); conditions: qualitative statement in the background; cited from earlier work
Sequence of B-form of the enzyme monoamine oxidase (MAO-B) (P27338 whole entry, species assumed): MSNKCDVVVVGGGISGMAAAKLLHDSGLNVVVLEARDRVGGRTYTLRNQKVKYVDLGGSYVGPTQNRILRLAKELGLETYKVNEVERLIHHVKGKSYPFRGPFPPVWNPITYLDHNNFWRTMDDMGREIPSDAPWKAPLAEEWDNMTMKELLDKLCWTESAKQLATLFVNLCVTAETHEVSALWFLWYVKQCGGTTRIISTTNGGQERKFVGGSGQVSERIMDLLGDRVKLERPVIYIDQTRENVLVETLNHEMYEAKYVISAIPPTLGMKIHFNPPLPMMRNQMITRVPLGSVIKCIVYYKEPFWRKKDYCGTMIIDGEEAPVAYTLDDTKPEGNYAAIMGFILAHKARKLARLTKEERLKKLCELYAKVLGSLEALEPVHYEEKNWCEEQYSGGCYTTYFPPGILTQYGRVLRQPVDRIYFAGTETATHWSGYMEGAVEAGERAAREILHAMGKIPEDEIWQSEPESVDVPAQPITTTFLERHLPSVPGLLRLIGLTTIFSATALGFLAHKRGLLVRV

Row | Particle size (D50) [1] [microns] | Particle size (D90) [1] | SMILES | other results
1 | 864 | 1496 microns | C#CCN[C@@H]1CCc2ccccc21 [Example 2, rasagiline mesylate] | 
2 |  | less than 300 microns | C#CCN[C@@H]1CCc2ccccc21 [Example 3, rasagiline mesylate] | 
3 |  | less than 400 microns | C#CCN[C@@H]1CCc2ccccc21 [Example 4, rasagiline mesylate] | 

Second part, the compound before the results:

Row | SMILES | Particle size (D50) [1] [microns] | Particle size (D90) [1] | other results
4 | C#CCN[C@@H]1CCc2ccccc21 [Example 1, rasagiline mesylate] | 663 | 1407 microns | 
5 | C#CCN[C@@H]1CCc2ccccc21.CS(=O)(=O)O [Rasagiline mesylate, rasagiline mesylate] |  |  | Solubility in ethanol ([2]; ethanol): freely soluble; Solubility in isopropanol ([2]; isopropanol): sparingly soluble; Solubility in water ([2]; water): freely soluble
6 | C#CCN[C@@H]1CCc2ccccc21 [Rasagiline, R(+)—N-propargyl-1-aminoindan] |  |  | Inhibition of MAO-B [3]: selective inhibitor
